Laboratory results taken from PMC11212140, “Molecular Bidents with Two Electrophilic Warheads as a New Pharmacological Modality” (ACS Central Science, 2024).

What was measured:
[1] = target: MEK5 (Homo sapiens, UniProt Q13163); experiment: LanthaScreen Binding activity assay; conditions: read-out: IC50 (nM) against MEK5
Excerpt: Table S2. Biochemical activities against a panel of kinase targets […]
aIC50 (nM) against EGFR L858R, BTK, JAK3, ITK and BLK were obtained with Z’-LYTE biochemical assay. bIC50 (nM) against MEK5 was obtained with LanthaScreen Binding activity assay. c Kd (nM) of MKK7 were obtained from KdELECT assays (DiscoverX). […]
(1 picture or pasted object on this page, not shown here)

[2] = In vivo pharmacokinetics in mice; conditions: male C57BL/6 mice
Experimental: To address this question, we tested the GSH reactivity of ZNL-0056 (Table S3) and its in vivo pharmacokinetic (PK) properties using three routes of administration including: 1 mg/kg IV, 3 mg/kg IP, and 10 mg/kg PO in male C57BL/6 mice (Table S4).
Table S4. Effect of ZNL-0056 in vivo- PK Parameters
Dose: 1mg/Kg IV, 3mg/Kg IP, 10mg/Kg PO. Formulation: 0.1mg/mL(IV) and 0.3mg/mL (IP)
and 1mg/mL (PO) solution in 5/25/70 EtOH/PEG300/D5W. […]

Chain of MEK5 (Q13163 whole entry, species assumed): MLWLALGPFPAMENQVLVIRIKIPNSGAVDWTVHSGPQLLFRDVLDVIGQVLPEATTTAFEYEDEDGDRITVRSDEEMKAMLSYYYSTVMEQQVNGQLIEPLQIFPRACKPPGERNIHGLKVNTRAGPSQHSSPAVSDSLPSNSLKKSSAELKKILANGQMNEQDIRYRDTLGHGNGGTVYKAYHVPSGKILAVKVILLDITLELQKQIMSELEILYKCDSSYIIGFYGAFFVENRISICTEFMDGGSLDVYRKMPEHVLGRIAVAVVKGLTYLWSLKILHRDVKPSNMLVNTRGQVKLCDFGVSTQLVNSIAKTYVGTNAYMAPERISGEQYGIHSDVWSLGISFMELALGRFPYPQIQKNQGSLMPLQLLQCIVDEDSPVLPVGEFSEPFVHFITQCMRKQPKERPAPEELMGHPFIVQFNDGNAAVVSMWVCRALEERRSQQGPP

C=CC(=O)Nc1cc(C(=O)Nc2nc3cccc(C)c3n2[C@@H]2CCCCN(C(=O)C=C)C2)cs1 [ZNL-0056]
IC50 [1]: 2500 nM
area under the curve ([2]; 1 mg/kg IV): 21 820 min·ng/mL
average maximal plasma concentration ([2]; 3 mg/kg IP): 1.3 µmol/L
area under the curve ([2]; 10 mg/kg PO): 63 341 min·ng/mL
average maximal plasma concentration ([2]; 10 mg/kg PO): 1.4 µmol/L
half-life ([2]; mouse, plasma, 1 mg/kg IV): 19.8 min
bioavailability ([2]; mouse, plasma, 10 mg/kg PO): 24%
